Experimental data from ChEMBL document CHEMBL1777795, “From benzimidazole to indole-5-carboxamide Thumb Pocket I inhibitors of HCV NS5B polymerase. Part 1: indole C-2 SAR and discovery of diamide derivatives with nanomolar potency in cell-based subgenomic replicons” (Bioorg Med Chem Lett, 2011).

What was measured:
[1] = AUC in Sprague-Dawley rat at 10 mg/kg, po; type: ADME, organism-based; set-up: dose 10 mg/kg, route oral; conditions: plasma
[2] = Cmax in Sprague-Dawley rat at 10 mg/kg, po; type: ADME, organism-based; set-up: dose 10 mg/kg, route oral; conditions: in vivo
[3] = (§1) Permeability from apical to basolateral side of human Caco2 cells; type: ADME, cell-based, Caco-2; conditions: Caco-2, read-out: permeability
[4] = Mean residence time in Sprague-Dawley rat at 10 mg/kg, po; type: ADME, organism-based; set-up: dose 10 mg/kg, route oral; conditions: in vivo
Caco-2 = assay: as §1; type: ADME, cell-based; conditions: caco-2, BLD = below limit of detection

Row | Structure (SMILES) | Papp A→B [3] [×10⁻⁶ cm/s] | further results
1 | Cn1c(-c2ccccn2)c(C2CCCCC2)c2ccc(C(=O)NC(C)(C)C(=O)Nc3ccc(/C=C/C(=O)O)cc3)cc21 | 16 | AUC [1]: 0.87 µM·h; Cmax [2]: 1230 nM; MRT [4]: 0.5 h
2 | Cn1c(-c2ccoc2)c(C2CCCCC2)c2ccc(C(=O)NC(C)(C)C(=O)Nc3ccc(/C=C/C(=O)O)cc3)cc21 | 6 | 
3 | Cn1c(-c2cnco2)c(C2CCCCC2)c2ccc(C(=O)NC(C)(C)C(=O)Nc3ccc(/C=C/C(=O)O)cc3)cc21 | 5 | 
4 | Cn1c(-c2ccc3ncccc3c2)c(C2CCCCC2)c2ccc(C(=O)NC(C)(C)C(=O)Nc3ccc(/C=C/C(=O)O)cc3)cc21 |  | permeability (Caco-2): BLD
5 | Cn1c(-c2ccncc2)c(C2CCCCC2)c2ccc(C(=O)NC(C)(C)C(=O)Nc3ccc(/C=C/C(=O)O)cc3)cc21 | 0.3 | 
6 | Cc1ccc(-c2c(C3CCCCC3)c3ccc(C(=O)NC(C)(C)C(=O)Nc4ccc(/C=C/C(=O)O)cc4)cc3n2C)nc1 | 16.4 | 
7 | Cc1ccc(-c2c(C3CCCCC3)c3ccc(C(=O)NC(C)(C)C(=O)Nc4ccc(/C=C/C(=O)O)cc4)cc3n2C)cn1 | 2.6 | 
8 | COc1cccc(-c2c(C3CCCCC3)c3ccc(C(=O)NC(C)(C)C(=O)Nc4ccc(/C=C/C(=O)O)cc4)cc3n2C)n1 | 24 | 
9 | Cn1c(-c2cnccn2)c(C2CCCCC2)c2ccc(C(=O)NC(C)(C)C(=O)Nc3ccc(/C=C/C(=O)O)cc3)cc21 | 7 | 

Further lines, with some results ahead:

Row | Papp A→B [3] [×10⁻⁶ cm/s] | Structure (SMILES) | further results
10 | 8.5 | Cn1c(-c2nccs2)c(C2CCCCC2)c2ccc(C(=O)NC(C)(C)C(=O)Nc3ccc(/C=C/C(=O)O)cc3)cc21 | 
11 | 0.2 | Cn1c(-c2csc(-c3cccnc3)n2)c(C2CCCCC2)c2ccc(C(=O)NC(C)(C)C(=O)Nc3ccc(/C=C/C(=O)O)cc3)cc21 | 
12 | 3.4 | Cn1c(-c2cccc3cccnc23)c(C2CCCCC2)c2ccc(C(=O)NC(C)(C)C(=O)Nc3ccc(/C=C/C(=O)O)cc3)cc21 | 
13 | 9.4 | Cn1c(-c2cccnc2)c(C2CCCCC2)c2ccc(C(=O)NC(C)(C)C(=O)Nc3ccc(/C=C/C(=O)O)cc3)cc21 | 
14 | 6.9 | Cc1cccc(-c2c(C3CCCCC3)c3ccc(C(=O)NC(C)(C)C(=O)Nc4ccc(/C=C/C(=O)O)cc4)cc3n2C)n1 | 
15 | 1.5 | Cn1c(-c2cccc(N)n2)c(C2CCCCC2)c2ccc(C(=O)NC(C)(C)C(=O)Nc3ccc(/C=C/C(=O)O)cc3)cc21 | AUC [1]: 1.18 µM·h; Cmax [2]: 990 nM; MRT [4]: 3.4 h
16 | 3.3 | Cn1c(-c2cncnc2)c(C2CCCCC2)c2ccc(C(=O)NC(C)(C)C(=O)Nc3ccc(/C=C/C(=O)O)cc3)cc21 | 
